In patent US12661331B2 (priority 2019, dated 2026):

System: PUUV
Set-up: species or system AG129 mice
Conditions: mouse, in vivo

O=C(O)c1ccc(F)c(F)c1Nc1ccc(I)cc1Cl [ATR-002, 2-(2-chloro-4-iodophenylamino)-N-3,4-difluoro benzoic acid]
virus in the kidney: no virus could be detected
virus in the lung: no virus could be detected
virus titer reduction compared to animals treated with solvent only (75 mg/kg/day): complete virus titer reduction
